Assay results: PubChem BioAssay (NCI)
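Dose response: 5 concentrations. Exposure: 48 h. Format: 96-well plates. Endpoint: linear interpolation; highest concentration if not reached. The concentration for full growth arrest is given as TGI.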

What was measured:
Assay in all cases: growth of human tumour cells (NCI), 48 h
[1] = test system: SNB-19 CNS
[2] = test system: U251 CNS
[3] = test system: EKVX NSCLC
[4] = test system: IGROV1 ovarian
[5] = test system: RXF 393 renal
[6] = test system: HCT-116 colon
[7] = test system: UO-31 renal
[8] = test system: SN12C renal
[9] = test system: CCRF-CEM leukemia
[10] = test system: A549 NSCLC
[11] = test system: KM12 colon
[12] = test system: HOP-92 NSCLC
[13] = test system: A498 renal
[14] = test system: MOLT-4 leukemia
[15] = test system: SNB-75 CNS
[16] = test system: HOP-62 NSCLC
[17] = test system: DMS 114 small cell lung
[18] = test system: MALME-3M melanoma
[19] = test system: COLO 205 colon
[20] = test system: SK-MEL-28 melanoma
[21] = test system: XF 498 CNS
[22] = test system: CAKI-1 renal
[23] = test system: UACC-62 melanoma
[24] = test system: NCI-H226 lung
[25] = test system: SK-OV-3 ovarian
[26] = test system: K-562 leukemia
[27] = test system: DLD-1 colon
[28] = test system: HT29 colon
[29] = test system: HOP-18 NSCLC
[30] = test system: LOX IMVI melanoma
[31] = test system: NCI-H522 lung
[32] = test system: OVCAR-5 ovarian
[33] = test system: NCI-H460 lung
[34] = test system: OVCAR-3 ovarian
[35] = test system: DMS 273 small cell lung
[36] = test system: LXFL 529 NSCLC
[37] = test system: SF-539 CNS
[38] = test system: SNB-78 CNS
[39] = test system: RPMI-8226 leukemia
[40] = test system: UACC-257 melanoma
[41] = test system: SW-620 colon
[42] = test system: HCC-2998 colon
[43] = test system: M14 melanoma
[44] = test system: OVCAR-8 ovarian
[45] = test system: 786-0 renal
[46] = test system: KM20L2 colon
[47] = test system: HCT-15 colon
[48] = test system: OVCAR-4 ovarian
[49] = test system: ACHN renal
[50] = test system: SF-268 CNS
[51] = test system: SK-MEL-5 melanoma
[52] = test system: M19-MEL melanoma
[53] = test system: NCI-H23 lung
[54] = test system: TK-10 renal
[55] = test system: SK-MEL-2 melanoma
[56] = test system: HL-60(TB) leukemia
[57] = test system: SR leukemia
[58] = test system: SF-295 CNS

Measured: TGI

Cc1ccc(S(=O)(=O)NC2CCCCO2)cc1 (stereo not given)
not listed: [54] | [55] | [56] | [57] | [58]
> 100 µM: all other assays above

[N-]=[N+]=Nc1ncnc2c1sc(=S)n2-c1ccccc1
52.7 µM: [16]
> 100 µM: all other assays above

Cn1cc(NC(=O)c2cc(NC(=O)CCCCCCCCCC(=O)Nc3cc(C(=O)Nc4cc(C(=O)NCCC(=N)N)n(C)c4)n(C)c3)cn2C)cc1C(=O)NCCC(=N)N
83.1 µM: [3] | [44]
57.1 µM: [10]
55.4 µM: [15]
73.3 µM: [49]
65.5 µM: [12]
85.9 µM: [54]
83.5 µM: [30]
81.3 µM: [16]
75 µM: [58]
46.2 µM: [28]
98.9 µM: [21]
54.9 µM: [39]
35.1 µM: [34]
66.4 µM: [32]
89.3 µM: [50]
69.2 µM: [9]
96.1 µM: [29]
31.7 µM: [11]
93.3 µM: [45]
26.7 µM: [18]
62.2 µM: [20]
82.1 µM: [14]
70.1 µM: [43]
not listed: [13] | [42] | [56] | [57]
> 100 µM: all other assays above
